From ChEMBL document CHEMBL4007467, “Effects of 6-paradol, an unsaturated ketone from gingers, on cytochrome P450-mediated drug metabolism” (Bioorg Med Chem Lett, 2017)
pIC50: −log10 of the molar value.

Tests used:
Format in all cases: ADME
[1] = target: T1, CYP2A6 (Homo sapiens, UniProt P11509); experiment: Inhibition of CYP2A6 in human liver microsomes assessed as enzyme-mediated metabolite formation at 0.3 uM using coumarin as substrate incubated for 5 mins followed by NADPH addition measured after 30 mins by LC-MS/MS analysis relative to control; design: scale not given: the % may be the effect or the level left; conditions: probe coumarin, read-out: Activity
T1 sequence (P11509 whole entry): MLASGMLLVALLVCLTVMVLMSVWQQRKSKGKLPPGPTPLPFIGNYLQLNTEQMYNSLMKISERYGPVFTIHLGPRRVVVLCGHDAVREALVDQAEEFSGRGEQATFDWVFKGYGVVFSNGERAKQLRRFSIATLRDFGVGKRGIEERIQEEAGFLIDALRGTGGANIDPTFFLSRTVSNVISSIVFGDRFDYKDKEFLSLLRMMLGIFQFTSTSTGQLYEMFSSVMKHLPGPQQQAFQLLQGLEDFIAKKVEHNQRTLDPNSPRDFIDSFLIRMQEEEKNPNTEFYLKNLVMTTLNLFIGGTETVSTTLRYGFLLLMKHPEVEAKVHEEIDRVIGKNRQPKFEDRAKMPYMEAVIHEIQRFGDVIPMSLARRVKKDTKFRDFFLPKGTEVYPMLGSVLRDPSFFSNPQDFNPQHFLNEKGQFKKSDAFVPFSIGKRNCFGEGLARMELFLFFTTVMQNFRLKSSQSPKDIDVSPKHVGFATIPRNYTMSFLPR

[2] = target: T2, CYP2C19 (Homo sapiens, UniProt P33261); experiment: Inhibition of CYP2C19 in human liver microsomes assessed as enzyme-mediated metabolite formation at 1 uM using (S)-mephenytoin as substrate incubated for 5 mins followed by NADPH addition measured after 30 mins by LC-MS/MS analysis relative to control; design: scale not given: the % may be the effect or the level left; conditions: probe (S)-mephenytoin, read-out: Activity
[3] = target: T3, CYP3A4 (Homo sapiens, UniProt P08684); experiment: Inhibition of CYP3A4 in human liver microsomes assessed as enzyme-mediated metabolite formation at 3 uM using midazolam as substrate incubated for 5 mins followed by NADPH addition measured after 30 mins by LC-MS/MS analysis relative to control; design: scale not given: the % may be the effect or the level left; conditions: probe midazolam, read-out: Activity
[4] = target: T3, CYP3A4; experiment: Inhibition of CYP3A4 in human liver microsomes assessed as enzyme-mediated metabolite formation at 0.1 uM using testosterone as substrate incubated for 5 mins followed by NADPH addition measured after 30 mins by LC-MS/MS analysis relative to control; design: scale not given: the % may be the effect or the level left; conditions: probe testosterone, read-out: Activity
[5] = target: T3, CYP3A4; experiment: Inhibition of CYP3A4 in human liver microsomes assessed as enzyme-mediated metabolite formation at 1 uM using testosterone as substrate incubated for 5 mins followed by NADPH addition measured after 30 mins by LC-MS/MS analysis relative to control; design: scale not given: the % may be the effect or the level left; conditions: probe testosterone, read-out: Activity
[6] = target: T4, CYP1A2 (Homo sapiens, UniProt P05177); experiment: Inhibition of CYP1A2 in human liver microsomes assessed as enzyme-mediated metabolite formation at 30 uM using phenacetin as substrate preincubated for 20 mins followed by substrate addition measured after 30 mins in presence of NADPH by LC-MS/MS analysis relative to control; design: scale not given: the % may be the effect or the level left; conditions: probe phenacetin, read-out: Activity
T4 sequence (P05177 whole entry): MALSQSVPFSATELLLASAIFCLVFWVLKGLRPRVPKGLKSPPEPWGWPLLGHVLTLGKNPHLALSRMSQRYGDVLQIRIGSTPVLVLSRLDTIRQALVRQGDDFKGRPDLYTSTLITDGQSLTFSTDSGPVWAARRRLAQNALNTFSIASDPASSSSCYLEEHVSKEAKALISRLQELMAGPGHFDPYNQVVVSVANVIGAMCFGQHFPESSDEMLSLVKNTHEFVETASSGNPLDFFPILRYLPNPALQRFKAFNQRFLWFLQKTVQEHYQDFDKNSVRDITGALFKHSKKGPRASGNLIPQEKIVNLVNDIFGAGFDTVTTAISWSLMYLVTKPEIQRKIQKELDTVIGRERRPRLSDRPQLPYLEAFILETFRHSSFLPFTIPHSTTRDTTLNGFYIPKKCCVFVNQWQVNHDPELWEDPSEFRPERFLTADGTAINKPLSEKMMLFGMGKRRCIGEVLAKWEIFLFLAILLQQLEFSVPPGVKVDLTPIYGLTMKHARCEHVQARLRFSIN

[7] = target: T5, CYP2B6 (Homo sapiens, UniProt P20813); experiment: Inhibition of CYP2B6 in human liver microsomes assessed as enzyme-mediated metabolite formation at 0.3 uM using bupropion as substrate preincubated for 20 mins followed by substrate addition measured after 30 mins in presence of NADPH by LC-MS/MS analysis relative to control; design: scale not given: the % may be the effect or the level left; conditions: probe bupropion, read-out: Activity
T5 sequence (P20813 whole entry): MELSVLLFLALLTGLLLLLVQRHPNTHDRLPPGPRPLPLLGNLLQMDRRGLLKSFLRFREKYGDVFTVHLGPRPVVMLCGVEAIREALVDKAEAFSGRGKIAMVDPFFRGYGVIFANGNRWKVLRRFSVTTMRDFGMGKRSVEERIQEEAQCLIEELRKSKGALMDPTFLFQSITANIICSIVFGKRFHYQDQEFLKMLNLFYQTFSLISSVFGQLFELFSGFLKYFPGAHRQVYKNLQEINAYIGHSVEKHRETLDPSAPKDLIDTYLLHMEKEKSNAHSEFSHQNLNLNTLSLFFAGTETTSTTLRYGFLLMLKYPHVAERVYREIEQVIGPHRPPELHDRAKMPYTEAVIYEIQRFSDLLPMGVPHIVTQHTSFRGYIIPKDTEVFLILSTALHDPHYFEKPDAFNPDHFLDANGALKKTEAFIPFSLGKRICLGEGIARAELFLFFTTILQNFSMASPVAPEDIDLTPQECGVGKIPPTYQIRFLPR

[8] = target: CYP2C9 (Homo sapiens, UniProt P11712); experiment: Inhibition of CYP2C9 in human liver microsomes assessed as enzyme-mediated metabolite formation at 10 uM using diclofenac as substrate preincubated for 20 mins followed by substrate addition measured after 30 mins in presence of NADPH by LC-MS/MS analysis relative to control; design: scale not given: the % may be the effect or the level left; conditions: probe diclofenac, read-out: Activity
[9] = target: T2, CYP2C19; experiment: Inhibition of CYP2C19 in human liver microsomes assessed as enzyme-mediated metabolite formation at 0.1 uM using (S)-mephenytoin as substrate preincubated for 20 mins followed by substrate addition measured after 30 mins in presence of NADPH by LC-MS/MS analysis relative to control; design: scale not given: the % may be the effect or the level left; conditions: probe (S)-mephenytoin, read-out: Activity
[10] = target: Cytochrome P450 2C19 (Homo sapiens, UniProt P33261); experiment: Inhibition of CYP2C19 in human liver microsomes using (S)-mephenytoin as substrate preincubated for 20 mins followed by substrate addition measured after 30 mins in presence of NADPH by LC-MS/MS analysis
[11] = target: T3, CYP3A4; experiment: Inhibition of CYP3A4 in human liver microsomes assessed as enzyme-mediated metabolite formation at 1 uM using testosterone as substrate preincubated for 20 mins followed by substrate addition measured after 30 mins in presence of NADPH by LC-MS/MS analysis relative to control; design: scale not given: the % may be the effect or the level left; conditions: probe testosterone, read-out: Activity
[12] = target: T3, CYP3A4; experiment: Inhibition of CYP3A4 in human liver microsomes assessed as enzyme-mediated metabolite formation at 3 uM using testosterone as substrate preincubated for 20 mins followed by substrate addition measured after 30 mins in presence of NADPH by LC-MS/MS analysis relative to control; design: scale not given: the % may be the effect or the level left; conditions: probe testosterone, read-out: Activity

T3 sequence (P08684 whole entry): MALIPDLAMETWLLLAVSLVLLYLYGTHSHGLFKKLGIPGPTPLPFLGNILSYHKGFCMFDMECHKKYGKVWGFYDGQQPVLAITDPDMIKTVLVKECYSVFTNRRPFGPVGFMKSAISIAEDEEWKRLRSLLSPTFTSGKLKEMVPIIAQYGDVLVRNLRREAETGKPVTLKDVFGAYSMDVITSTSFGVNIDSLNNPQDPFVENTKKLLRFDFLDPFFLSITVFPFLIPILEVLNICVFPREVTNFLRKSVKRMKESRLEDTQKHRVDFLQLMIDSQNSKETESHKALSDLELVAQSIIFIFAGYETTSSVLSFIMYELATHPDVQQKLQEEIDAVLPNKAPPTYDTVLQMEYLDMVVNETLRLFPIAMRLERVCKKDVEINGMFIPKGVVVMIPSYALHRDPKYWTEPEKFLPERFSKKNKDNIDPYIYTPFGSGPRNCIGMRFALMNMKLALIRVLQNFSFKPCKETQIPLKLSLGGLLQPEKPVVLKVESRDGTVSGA
T2 sequence (P33261 whole entry): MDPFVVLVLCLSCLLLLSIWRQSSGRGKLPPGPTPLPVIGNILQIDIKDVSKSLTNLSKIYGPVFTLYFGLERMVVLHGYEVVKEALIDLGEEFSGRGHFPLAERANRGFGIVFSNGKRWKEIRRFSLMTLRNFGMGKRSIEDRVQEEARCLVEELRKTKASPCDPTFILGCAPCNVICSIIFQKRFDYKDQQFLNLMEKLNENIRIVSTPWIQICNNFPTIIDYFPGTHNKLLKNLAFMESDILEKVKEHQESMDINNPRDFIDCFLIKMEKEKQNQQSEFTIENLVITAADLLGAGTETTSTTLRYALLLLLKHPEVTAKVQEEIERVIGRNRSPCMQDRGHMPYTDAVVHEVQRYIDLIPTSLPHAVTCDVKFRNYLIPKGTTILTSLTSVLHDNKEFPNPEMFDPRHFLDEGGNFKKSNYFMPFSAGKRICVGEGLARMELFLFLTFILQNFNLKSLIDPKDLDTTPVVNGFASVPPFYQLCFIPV
CYP2C9, sequence (P11712 whole entry): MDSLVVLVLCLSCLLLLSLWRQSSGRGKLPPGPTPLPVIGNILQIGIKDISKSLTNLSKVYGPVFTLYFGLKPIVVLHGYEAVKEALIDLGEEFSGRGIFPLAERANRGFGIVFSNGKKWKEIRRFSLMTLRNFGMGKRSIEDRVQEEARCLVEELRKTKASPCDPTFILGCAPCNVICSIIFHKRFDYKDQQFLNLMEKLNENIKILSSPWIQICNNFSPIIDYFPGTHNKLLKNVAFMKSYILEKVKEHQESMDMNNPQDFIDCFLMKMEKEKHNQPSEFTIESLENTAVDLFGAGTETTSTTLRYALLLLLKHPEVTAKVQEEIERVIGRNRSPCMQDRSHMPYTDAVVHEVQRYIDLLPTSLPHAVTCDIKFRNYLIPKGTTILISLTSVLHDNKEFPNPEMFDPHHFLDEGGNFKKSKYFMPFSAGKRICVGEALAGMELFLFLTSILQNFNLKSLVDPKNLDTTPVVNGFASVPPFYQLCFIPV
Cytochrome P450 2C19, sequence (P33261 whole entry): as the sequence (P33261 whole entry) above

Q: `CCCCCCCC(=O)CCc1ccc(O)c(OC)c1` was tested. Which activity at 0.5 h, 0.3 µM [1] did it give?
A: The activity at 0.5 h, 0.3 µM was 83.8%.

Q: And the activity at 0.5 h, 1 µM [2]?
A: The activity at 0.5 h, 1 µM was 88.4%.

Q: And the activity at 0.5 h, 3 µM [3]?
A: The activity at 0.5 h, 3 µM was 77.4%.

Q: And the activity at 0.5 h, 0.1 µM [4]?
A: Its activity at 0.5 h, 0.1 µM is 100%.

Q: What about the activity at 0.5 h, 1 µM [5] of the same compound?
A: Its activity at 0.5 h, 1 µM is 65.6%.

Q: What about the activity at 0.5 h, 30 µM [6] of the same compound?
A: The activity at 0.5 h, 30 µM was 42.8%.

Q: And the activity at 0.5 h, 0.3 µM [7]?
A: The activity at 0.5 h, 0.3 µM was 81.3%.

Q: What about the activity at 0.5 h, 10 µM [8] of the same compound?
A: The activity at 0.5 h, 10 µM was 60.8%.

Q: And the activity at 0.5 h, 0.1 µM [9]?
A: Its activity at 0.5 h, 0.1 µM is 102%.

Q: And the pIC50 [10]?
A: Its pIC50 is 5.44.

Q: And the activity at 0.5 h, 1 µM [11]?
A: Its activity at 0.5 h, 1 µM is 89.8%.

Q: And the activity at 0.5 h, 3 µM [12]?
A: Its activity at 0.5 h, 3 µM is 95.8%.
